Measurements: the NIST ThermoML archive (doi:10.1021/je301283e)

Conditions: Vibrating tube method

O=C=O [carbon dioxide]
mass density [kg/m3], Fluid (supercritical or subcritical phases)
Conditions | 313.15 K | 333.15 K | 353.15 K | 373.15 K | 393.15 K
340 kPa | 8.2 | 7.7 | 7.4 | 6.5 | 5.7
690 kPa | 15.1 | 13.4 | 13.5 | 10.9 | 9.5
1030 kPa | 21.4 | 19.9 | 18.8 | 17.1 | 16.3
1380 kPa | 26.7 | 25.1 | 24.6 | 23.2 | 22.1
1720 kPa | 34.2 | 31.9 | 31.4 | 28.6 | 26.9
2070 kPa | 38.6 | 38.4 | 36.1 | 32.7 | 32
2410 kPa | 48.4 | 44.1 | 41.9 | 39.2 | 37
2760 kPa | 56.7 | 51.2 | 48 | 44.8 | –
3100 kPa | 64.1 | 59.1 | 54.1 | 50.3 | 47.4
3450 kPa | 72.9 | 65.1 | 61.4 | 56.1 | 52.9
3800 kPa | 80.9 | 73.1 | 67.2 | 63.2 | 58.2
4140 kPa | 87.5 | 79.7 | 73.8 | 67.9 | 63.6
4480 kPa | 99.4 | 87.9 | 80.5 | 73.1 | 69.2
4830 kPa | 109.8 | 96.5 | 88 | 80 | 74.7
5170 kPa | 122 | 105.1 | 94.9 | 86.2 | 80.4
5510 kPa | 134 | 114.2 | 102.4 | 93 | 86.2
5860 kPa | 145.4 | 123.8 | 110.2 | 99.2 | 92.4
6200 kPa | 158 | 133.4 | 118 | 106 | 98.1
6550 kPa | 175.1 | 144.2 | 126.2 | 112.9 | 104.7
6890 kPa | 194.5 | 154.3 | 134.4 | 120 | 110.5
7240 kPa | 218.9 | 166.4 | 143.4 | 127 | 113.6
7580 kPa | 239.9 | 178.8 | 152.1 | 135.4 | 123.1
7930 kPa | 272.8 | 190.1 | 161.4 | 143.1 | 129.9
8270 kPa | 315.6 | 205.2 | 171.1 | 151.1 | 136.2
8620 kPa | 383.1 | 219.5 | 180.8 | 158.1 | 142.9
8960 kPa | 478.5 | 235.1 | 191.1 | 166.1 | 149.4
9310 kPa | 554.1 | 252.4 | 201.8 | 174.4 | 156.2
9650 kPa | 599.1 | 271 | 211.9 | 182.7 | 163.2
10000 kPa | 630 | 291.4 | 223.5 | 191.9 | 170.4
10340 kPa | 649.1 | 313.6 | 235 | 199.4 | 176.4
10690 kPa | 667.8 | 337 | 247.4 | 208.4 | 183.2
11030 kPa | 682.9 | 361.9 | 259.8 | 217.3 | 191.1
11380 kPa | 696.2 | 388 | 272.4 | 223.2 | 198.2
11720 kPa | 708 | 411.1 | 283.9 | 233.1 | 203.9
12070 kPa | 718.3 | 437.9 | 298.3 | 242.8 | 210.8
12410 kPa | 727.4 | 463.8 | 312.1 | 252.7 | 218
12750 kPa | 737.3 | 489.2 | 328.4 | 262.8 | 226.3
13100 kPa | 744.1 | 510.1 | 342 | 272.5 | 234
13440 kPa | 751 | 530.7 | 356.7 | 283.1 | 242.1
13790 kPa | 757.9 | 549.9 | 372.8 | 293.1 | 250.9
14130 kPa | 765.3 | 567.7 | 388.6 | 304.7 | 258
14480 kPa | 770 | 582 | 403 | 314.9 | 266.4
14820 kPa | 775.9 | 596 | 417.8 | 325 | 275
15160 kPa | 781.5 | 609.4 | 433 | 336.1 | 283.9
15510 kPa | 786.4 | 621 | 447.5 | 347.6 | 291.1
15860 kPa | 791.7 | 627.4 | 461 | 358.1 | 300.7
16200 kPa | 796.1 | 642.1 | 475 | 368.7 | 308.4
16550 kPa | 801.2 | 651.8 | 488.1 | 379.8 | 316.8
16900 kPa | 805.8 | 661.7 | 501 | 390.2 | 325.1
17240 kPa | 809.8 | 669.7 | 513 | 400.4 | 333.1

CCCCCCCCCCCCCCCC [hexadecane]
mass density [kg/m3], Liquid
Conditions | 313.15 K | 333.15 K | 353.15 K | 373.15 K | 393.15 K
340 kPa | 759.52 | 746.8 | 736.2 | 723.1 | 710
690 kPa | 759.83 | 747.1 | 736.4 | 723.3 | 710.3
1030 kPa | 760.08 | 747.4 | 736.6 | 723.6 | 710.6
1380 kPa | 760.33 | 747.7 | 736.9 | 723.8 | 710.9
1720 kPa | 760.65 | 748 | 737.1 | 724 | 711.1
2070 kPa | 760.88 | 748.2 | 737.4 | 724.3 | 711.4
2410 kPa | 761.08 | 748.5 | 737.7 | 724.6 | 711.7
2760 kPa | 761.33 | 748.7 | 738 | 724.9 | 712
3100 kPa | 761.65 | 749 | 738.3 | 725.1 | 712.2
3450 kPa | 761.83 | 749.2 | 738.7 | 725.4 | 712.3
3800 kPa | 762.08 | 749.5 | 739.1 | 725.6 | 712.5
4140 kPa | 762.33 | 749.8 | 739.3 | 725.9 | 712.8
4480 kPa | 762.49 | 750 | 739.5 | 726.1 | 713
4830 kPa | 762.83 | 750.2 | 739.8 | 726.4 | 713.3
5170 kPa | 763.08 | 750.5 | 740 | 726.7 | 713.5
5510 kPa | 763.33 | 750.7 | 740.2 | 726.9 | 713.8
5860 kPa | 763.58 | 751 | 740.4 | 727.2 | 714
6200 kPa | 763.83 | 751.2 | 740.5 | 727.5 | 714.3
6550 kPa | 764.08 | 751.4 | 740.7 | 727.8 | 714.6
6890 kPa | 764.33 | 751.6 | 741 | 728.1 | 714.9
7240 kPa | 764.65 | 752 | 741.2 | 728.4 | 715.1
7580 kPa | 764.83 | 752.4 | 741.5 | 728.5 | 715.3
7930 kPa | 765.08 | 752.6 | 741.7 | 728.9 | 715.5
8270 kPa | 765.33 | 752.8 | 742 | 729.4 | 715.8
8620 kPa | 765.58 | 753 | 742.2 | 729.9 | 716
8960 kPa | 765.74 | 753.2 | 742.5 | 730.2 | 716.3
9310 kPa | 765.99 | 753.5 | 742.7 | 730.6 | 716.6
9650 kPa | 766.24 | 753.8 | 742.9 | 730.8 | 716.8
10000 kPa | 766.49 | 754 | 743.1 | 731 | 717.1
10340 kPa | 766.74 | 754.3 | 743.5 | 731.4 | 717.4
10690 kPa | 766.98 | 754.5 | 743.9 | 731.6 | 717.6
11030 kPa | 767.22 | 754.8 | 744.1 | 731.9 | 717.9
11380 kPa | 767.48 | 755 | 744.3 | 732.1 | 718.1
